One assay addresses c-Raf (Homo sapiens, UniProt P04049). The experiment in a line: Luciferase-coupled chemiluminescence kinase assay (ATP consumption), c-Raf. The following applies: read-out: cRaf-1 (inhibition indicated as IC50). Type of assay: biochemical. An outline of the steps: (§1)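 Pre-incub. kinase […] + cpd, 30 min RT (20 mM Tris pH 7.5, 10 mM MgCl2, 0.03% TX-100, 1 mM DTT). Start w/ ATP, 3 h ambient. Luciferase-luciferin mix added and luminescence read. Total ATP use 25-60%. IC50 derived.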

The target in another assay is B-Raf (Homo sapiens, UniProt P15056). The experiment in a line: Luciferase-coupled chemiluminescence kinase assay (ATP consumption), B-Raf. Format: biochemical. The settings on record: read-out: bRaf (inhibition indicated as IC50). In outline:
as §1

Sequence of B-Raf (P15056 whole entry): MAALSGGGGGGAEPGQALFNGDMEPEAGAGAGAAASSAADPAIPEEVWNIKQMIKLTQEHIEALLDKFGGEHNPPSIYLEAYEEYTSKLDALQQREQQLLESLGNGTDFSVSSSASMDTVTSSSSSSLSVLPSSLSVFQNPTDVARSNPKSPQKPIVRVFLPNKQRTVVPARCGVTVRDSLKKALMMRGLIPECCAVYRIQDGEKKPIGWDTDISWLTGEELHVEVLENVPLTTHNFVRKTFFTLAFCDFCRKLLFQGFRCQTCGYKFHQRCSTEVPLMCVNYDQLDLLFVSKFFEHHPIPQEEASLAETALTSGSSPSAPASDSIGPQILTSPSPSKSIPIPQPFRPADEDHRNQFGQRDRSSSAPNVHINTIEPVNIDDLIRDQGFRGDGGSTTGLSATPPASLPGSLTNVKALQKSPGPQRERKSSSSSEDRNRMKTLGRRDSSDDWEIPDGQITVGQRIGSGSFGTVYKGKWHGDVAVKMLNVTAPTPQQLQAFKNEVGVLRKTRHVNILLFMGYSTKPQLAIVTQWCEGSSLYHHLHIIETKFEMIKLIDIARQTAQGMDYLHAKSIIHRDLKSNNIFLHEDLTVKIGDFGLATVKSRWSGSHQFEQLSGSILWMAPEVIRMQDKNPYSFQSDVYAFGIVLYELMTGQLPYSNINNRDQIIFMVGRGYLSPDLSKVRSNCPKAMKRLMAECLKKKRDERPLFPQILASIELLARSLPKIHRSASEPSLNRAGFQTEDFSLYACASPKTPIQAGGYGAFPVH
Sequence of c-Raf (P04049 whole entry): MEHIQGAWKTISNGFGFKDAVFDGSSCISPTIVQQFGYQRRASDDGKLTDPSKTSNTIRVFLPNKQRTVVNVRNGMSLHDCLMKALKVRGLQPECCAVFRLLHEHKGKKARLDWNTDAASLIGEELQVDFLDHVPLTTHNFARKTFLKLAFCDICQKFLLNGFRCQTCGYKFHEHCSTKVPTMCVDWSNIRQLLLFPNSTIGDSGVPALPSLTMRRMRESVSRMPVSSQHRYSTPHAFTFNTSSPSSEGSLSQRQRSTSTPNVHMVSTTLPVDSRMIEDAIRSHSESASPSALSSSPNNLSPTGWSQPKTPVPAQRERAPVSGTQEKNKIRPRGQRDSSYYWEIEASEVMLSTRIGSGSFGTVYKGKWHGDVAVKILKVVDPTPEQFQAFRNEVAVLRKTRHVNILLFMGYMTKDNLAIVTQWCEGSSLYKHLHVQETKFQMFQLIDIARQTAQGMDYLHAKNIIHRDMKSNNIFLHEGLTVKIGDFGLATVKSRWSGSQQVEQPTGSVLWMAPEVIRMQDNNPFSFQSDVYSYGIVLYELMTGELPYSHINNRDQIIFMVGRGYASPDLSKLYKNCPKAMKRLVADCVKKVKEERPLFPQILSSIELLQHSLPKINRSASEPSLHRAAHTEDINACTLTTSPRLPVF

`Cc1cccc(N2C(=O)c3ccccc3C2(O)c2ccc3nc(Nc4cnccn4)[nH]c3c2)c1` (stereo not shown) [Entry 388, 3-hydroxy-2-(3-methylphenyl)-3-[2-(pyrazin-2-ylamino)-1H-benzimidazol-6-yl]-2,3-dihydro-1H-isoindol-1-one]: the IC50 at c-Raf and on B-Raf was < 100 nM each time.
Take `Cc1ccc(Cl)cc1N1C(=O)c2ccccc2C1(O)c1ccc2nc(Nc3cnccn3)[nH]c2c1` (stereo not shown) [Entry 389, 2-(5-chloro-2-methylphenyl)-3-hydroxy-3-[2-(pyrazin-2-ylamino)-1H-benzimidazol-6-yl]-2,3-dihydro-1H-isoindol-1-one]: the IC50 on c-Raf and at B-Raf was < 100 nM throughout.
Consider `COC(=O)Nc1nc2ccc(C3(O)c4ccccc4C(=O)N3c3cccc(C)c3F)cc2[nH]1` (stereo not shown) [Entry 390, methyl {6-[2-(2-fluoro-3-methylphenyl)-1-hydroxy-3-oxo-2,3-dihydro-1H-isoindol-1-yl]-1H-benzimidazol-2-yl}carbamate], for which the IC50 on c-Raf and on B-Raf was < 100 nM each time.
Consider `COc1cccc(N2C(=O)c3ccccc3C2(O)c2ccc3[nH]c(Nc4cnccn4)nc3c2)c1` (stereo not shown) [Entry 391, 3-hydroxy-2-[3-(methyloxy)phenyl]-3-[2-(pyrazin-2-ylamino)-1H-benzimidazol-5-yl]-2,3-dihydro-1H-isoindol-1-one], for which the IC50 at c-Raf and on B-Raf was < 100 nM each time.
Take `COC(=O)Nc1nc2ccc(C(=O)c3ccccc3C(=O)NCc3cccs3)cc2[nH]1` [Entry 392, methyl {6-[(2-{[(2-thienylmethyl)amino]carbonyl}phenyl)carbonyl]-1H-benzimidazol-2-yl}carbamate]: the IC50 at c-Raf and at B-Raf was < 100 nM throughout.
For the molecule `COC(=O)Nc1nc2ccc(C(=O)c3ccccc3C(=O)Nc3cccc(Br)c3)cc2[nH]1` [Entry 394, methyl {6-[(2-{[(3-bromophenyl)amino]carbonyl}phenyl)carbonyl]-1H-benzimidazol-2-yl}carbamate], the IC50 at c-Raf and on B-Raf was < 100 nM each time.
As for `COC(=O)Nc1nc2ccc(C(=O)c3ccccc3C(=O)Nc3cccc(Cl)c3)cc2[nH]1` [Entry 395, methyl {6-[(2-{[(3-chlorophenyl)amino]carbonyl}phenyl)carbonyl]-1H-benzimidazol-2-yl}carbamate], the IC50 at c-Raf and at B-Raf was < 100 nM in each case.
For the molecule `COC(=O)Nc1nc2ccc(C(=O)c3ccccc3C(=O)Nc3cccc(OC)c3)cc2[nH]1` [Entry 397, methyl (6-{[2-({[3-(methyloxy)phenyl]amino}carbonyl)phenyl]carbonyl}-1H-benzimidazol-2-yl)carbamate], the IC50 on c-Raf and on B-Raf was < 100 nM each time.
Consider `COC(=O)Nc1nc2ccc(C(=O)c3ccccc3C(=O)Nc3cccc(C(F)(F)F)c3)cc2[nH]1` [Entry 398, methyl (6-{[2-({[3-(trifluoromethyl)phenyl]amino}carbonyl)phenyl]carbonyl}-1H-benzimidazol-2-yl)carbamate], for which the IC50 on c-Raf and on B-Raf was < 100 nM throughout.
Take `COC(=O)Nc1nc2ccc(C(=O)c3ccccc3C(=O)Nc3ccc(F)c(Cl)c3)cc2[nH]1` [Entry 401, methyl {6-[(2-{[(3-chloro-4-fluorophenyl)amino]carbonyl}phenyl)carbonyl]-1H-benzimidazol-2-yl}carbamate]: the IC50 on c-Raf and at B-Raf was < 100 nM throughout.
Take `COC(=O)Nc1nc2ccc(C(=O)c3ccccc3C(=O)Nc3cc(Cl)ccc3F)cc2[nH]1` [Entry 402, methyl {6-[(2-{[(5-chloro-2-fluorophenyl)amino]carbonyl}phenyl)carbonyl]-1H-benzimidazol-2-yl}carbamate]: the IC50 on c-Raf and on B-Raf was < 100 nM throughout.
Regarding `COC(=O)Nc1nc2ccc(C(=O)c3ccccc3C(=O)Nc3ccc(F)c(Br)c3)cc2[nH]1` [Entry 406, methyl {6-[(2-{[(3-bromo-4-fluorophenyl)amino]carbonyl}phenyl)carbonyl]-1H-benzimidazol-2-yl}carbamate], the IC50 at c-Raf and at B-Raf was < 100 nM throughout.
As to `COC(=O)Nc1nc2ccc(C(=O)c3ccccc3C(=O)Nc3cccc(Cl)c3F)cc2[nH]1` [Entry 407, methyl {6-[(2-{[(3-chloro-2-fluorophenyl)amino]carbonyl}phenyl)carbonyl]-1H-benzimidazol-2-yl}carbamate], the IC50 on c-Raf and on B-Raf was < 100 nM in each case.
On to `COC(=O)Nc1nc2ccc(C(=O)c3ccccc3C(=O)Nc3ccc(F)c(C)c3)cc2[nH]1` [Entry 408, methyl {6-[(2-{[(4-fluoro-3-methylphenyl)amino]carbonyl}phenyl)carbonyl]-1H-benzimidazol-2-yl}carbamate], for which the IC50 at c-Raf and on B-Raf was < 100 nM in each case.
Turning to `COC(=O)Nc1nc2ccc(C(=O)c3ccccc3C(=O)Nc3cc(Br)c(F)cc3F)cc2[nH]1` [Entry 410, methyl {6-[(2-{[(5-bromo-2,4-difluorophenyl)amino]carbonyl}phenyl)carbonyl]-1H-benzimidazol-2-yl}carbamate], the IC50 at c-Raf and on B-Raf was < 100 nM in each case.
As to `COC(=O)Nc1nc2ccc(C(=O)c3ccccc3C(=O)Nc3cc(Cl)c(F)cc3F)cc2[nH]1` [Entry 411, methyl {6-[(2-{[(5-chloro-2,4-difluorophenyl)amino]carbonyl}phenyl)carbonyl]-1H-benzimidazol-2-yl}carbamate], the IC50 at c-Raf and at B-Raf was < 100 nM in each case.
Consider `C=Cc1cccc(NC(=O)c2ccccc2C(=O)c2ccc3nc(NC(=O)OC)[nH]c3c2)c1` [Entry 413, methyl {6-[(2-{[(3-ethenylphenyl)amino]carbonyl}phenyl)carbonyl]-1H-benzimidazol-2-yl}carbamate], for which the IC50 on c-Raf and at B-Raf was < 100 nM each time.
As for `C#Cc1cccc(NC(=O)c2ccccc2C(=O)c2ccc3nc(NC(=O)OC)[nH]c3c2)c1F` [Entry 414, methyl {6-[(2-{[(3-ethynyl-2-fluorophenyl)amino]carbonyl}phenyl)carbonyl]-1H-benzimidazol-2-yl}carbamate], the IC50 on c-Raf and at B-Raf was < 100 nM each time.
Take `C=Cc1cccc(NC(=O)c2ccccc2C(=O)c2ccc3nc(NC(=O)OC)[nH]c3c2)c1F` [Entry 418, methyl {6-[(2-{[(3-ethenyl-2-fluorophenyl)amino]carbonyl}phenyl)carbonyl]-1H-benzimidazol-2-yl}carbamate]: the IC50 on c-Raf and on B-Raf was < 100 nM in each case.
For the molecule `COC(=O)Nc1nc2ccc(C(=O)c3ccccc3C(=O)Nc3cc(C)ccc3F)cc2[nH]1` [Entry 419, methyl {6-[(2-{[(2-fluoro-5-methylphenyl)amino]carbonyl}phenyl)carbonyl]-1H-benzimidazol-2-yl}carbamate], the IC50 on c-Raf and at B-Raf was < 100 nM each time.

These data come from patent publication US7846959B2, “Raf modulators and methods of use” (Exelixis, Inc., priority 2004, dated 2010).
